# Data reported in US11279733B2, “Peptide antibiotics” (priority 2017, dated 2022).
# Positions of bridges follow the written chain, without caps; N, C: chain ends. Non-standard residues stand in square brackets, D forms with d. Residues, ends and D or L forms follow the SMILES beside them. *: point of attachment. Decanoyl(3R-OH) = CCCCCCC[C@@H](O)CC(=O)*; dBip = N[C@H](Cc1ccc(-c2ccccc2)cc1)C(=O)O; X9 = CCCCCC1CCC(C(=O)*)CC1; dDab = NCC[C@@H](N)C(=O)O; Dab = NCC[C@H](N)C(=O)O
# What was measured:
# A. baumannii ATCC 19606 = settings: ATCC 19606
# How it was run: (§1)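 Mid-log cultures grown in Mueller Hinton broth at 37° C were tested by 2-fold broth microdilution at 5×10^5 CFU/mL final. Compounds were dissolved in water and tested over a final range of 32 to 0.015 μg/mL.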
# A. baumannii GN_093 PmxR = settings: GN 093 PmxR
# How it was run: as §1
# E. coli ATCC 25922 = settings: ATCC 25922
# How it was run: as §1
# K. pneumoniae ATCC 13883 = settings: ATCC 13883
# How it was run: as §1
# [1] = tested on: K. pneumoniae ATCC 700603, MDR; settings: ATCC 700603
# How it was run: as §1
# [2] = tested on: K. pneumoniae ATCC BAA-2146, NDM-1 pos; settings: ATCC BAA-2146
# How it was run: as §1
# [3] = tested on: K. pneumoniae GN_102 PmxR; settings: GN 102 PmxR
# How it was run: as §1
# [4] = tested on: K. pneumoniae GN_106, PmxR; settings: GN 106, PmxR
# How it was run: as §1
# P. aeruginosa ATCC 27853 = settings: ATCC 27853
# How it was run: as §1
# [5] = tested on: P. aeruginosa GN_043, PmxR
# How it was run: as §1
# [6] = tested on: P. aeruginosa GN_105, PmxR; settings: GN 105, PmxR
# How it was run: as §1
# [7] = tested on: S. aureus ATCC 25923, MSSA; settings: ATCC 25923
# How it was run: as §1
# in vitro = settings: human
# How it was run: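 HK2 cells were seeded at 2000 per well in DMEM/F12 with 10% FBS and left to attach for 24 h at 37 °C, 5% CO2. They were then exposed for 24 h to 3-fold peptide dilutions starting from 600 μM solutions in quadruplicate. LDH release was read at 450 nm, and CC50 was fitted from dose-response curves.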
SMILES,CC50 at 24 h (in vitro) [µM],MIC A. baumannii ATCC 19606 (A. baumannii ATCC 19606) [mg/L],MIC A. baumannii GN_093 PmxR (A. baumannii GN_093 PmxR) [mg/L],MIC E. coli ATCC 25922 (E. coli ATCC 25922) [mg/L],MIC K. pneumoniae ATCC 13883 (K. pneumoniae ATCC 13883) [mg/L],"MIC K. pneumoniae ATCC 700603, MDR [1] [mg/L]","MIC K. pneumoniae ATCC BAA-2146, NDM-1 pos [2] [mg/L]",MIC K. pneumoniae GN_102 PmxR [3] [mg/L],"MIC K. pneumoniae GN_106, PmxR [4] [mg/L]",MIC P. aeruginosa ATCC 27853 (P. aeruginosa ATCC 27853) [mg/L],"MIC P. aeruginosa GN_043, PmxR [5] [mg/L]","MIC P. aeruginosa GN_105, PmxR [6] [mg/L]","MIC S. aureus ATCC 25923, MSSA [7] [mg/L]",other results
"CCCCCCC[C@@H](O)CC(=O)N[C@H](CCN)C(=O)N[C@H]1CCNC(=O)[C@H](CC(C)C)NC(=O)[C@H](CCN)NC(=O)[C@H](C)NC(=O)[C@H](CC(C)C)NC(=O)[C@@H](Cc2ccccc2)NC(=O)[C@H](CCN)NC1=O [compound 4945, 3(R)OH-nC9CO-D-Dab-cyc[L-Dab-L-Dab-D-Phe-L-Leu-L-Ala-L-Dab-L-Leu]] ({Decanoyl(3R-OH)}-[dDab][Dab][Dab][dF]LA[Dab]L; lactam 2-C)",181,–,–,–,–,–,–,–,–,–,–,–,–,"MIC, A. baumannii ATCC 19606 (A. baumannii ATCC 19606): 16 mg/L; MIC, A. baumannii Cl Ptyela 10073 4512:2, PmxR (A. baumannii GN_093 PmxR): 32 mg/L; MIC, E. coli ATCC 25922 (E. coli ATCC 25922): 16 mg/L; MIC, K. pneumoniae ATCC 13883 (K. pneumoniae ATCC 13883): 16 mg/L; MIC, K. pneumoniae ATCC 700603, MDR [1]: 8 mg/L; MIC, K. pneumoniae ATCC BAA-2146, NDM-1 pos [2]: 8 mg/L; MIC, K. pneumoniae Cl Koprana 10065 0661:1, PmxR [3]: 4 mg/L; MIC, K. pneumoniae Cl 138-16347-20362, PmxR [4]: 16 mg/L; MIC, P. aeruginosa ATCC 27853 (P. aeruginosa ATCC 27853): 4 mg/L; MIC, P. aeruginosa FADDI-PA070, PmxR ([5]; Table 5, polymyxin-resistant): 4 mg/L; MIC, P. aeruginosa PA9704, PmxR [6]: 8 mg/L; MIC, S. Aureus ATCC 25923, MSSA [7]: 32 mg/L"
"CCCCCCC[C@@H](O)CC(=O)N[C@H](CCN)C(=O)N[C@H]1CCNC(=O)[C@H]([C@@H](C)O)NC(=O)[C@H](CCN)NC(=O)[C@H](CCN)NC(=O)[C@H](CC(C)C)NC(=O)[C@@H](Cc2ccc(-c3ccccc3)cc2)NC(=O)[C@H](CCN)NC1=O [compound 5608, 3(R)OH-nC9CO-D-Dab-cyc[L-Dab-L-Dab-D-Bip-L-Leu-L-Dab-L-Dab-L-Thr]] ({Decanoyl(3R-OH)}-[dDab][Dab][Dab][dBip]L[Dab][Dab]T; lactam 2-C)",37,4,16,2,2,2,2,4,8,2,1,2,4,–
"CCCCCC1CCC(C(=O)N[C@H](CCN)C(=O)N[C@H]2CCNC(=O)[C@H]([C@@H](C)O)NC(=O)[C@H](CCN)NC(=O)[C@H](CCN)NC(=O)[C@H](CC(C)C)NC(=O)[C@@H](Cc3ccccc3)NC(=O)[C@H](CCN)NC2=O)CC1 (stereo partly drawn) [compound 6404, C11H21CO-D-Dab-cyc[L-Dab-L-Dab-D-Phe-L-Leu-L-Dab-L-Dab-L-Thr]] (X9-[dDab][Dab][Dab][dF]L[Dab][Dab]T; lactam 2-C)",38,64,>32,1,16,0.5,1,>32,>32,0.25,32,8,8,–
"CCCCCCC[C@@H](O)CC(=O)N[C@H](CCN)C(=O)N[C@H]1CCNC(=O)[C@H]([C@@H](C)O)NC(=O)[C@H](CCN)NC(=O)[C@H](CCNC(=O)[C@@H](N)CCCNC(=N)N)NC(=O)[C@H](CC(C)C)NC(=O)[C@@H](Cc2ccccc2)NC(=O)[C@H](CCN)NC1=O [compound 6656, 3(R)OH-nC9CO-D-Dab-cyc[L-Dab-L-Dab-D-Phe-L-Leu-L-Dab(L-Arg)-L-Dab-L-Thr]] ({Decanoyl(3R-OH)}-[dDab][Dab][Dab][dF]L[Dab](Arg)[Dab]T; lactam 2-C)",> 300,16,>32,2,>32,4,>32,>32,>32,2,8,16,>32,–
